Several values for one entry are separate records, joined by “and”; a condition that tells them apart may be missing. Equal entries are not always repeated.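 Grown in 96-well plates, cells were treated for 48 hours with each compound at five concentrations. Insufficient inhibition: endpoint recorded as highest concentration tested. At the GI50, growth is halved. TGI: concentration producing complete growth inhibition.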
How the values were obtained:
Experiment in all cases: NCI-60 cell line screen, 48 h
A549 NSCLC = test system: A549 NSCLC
DU-145 prostate = test system: DU-145 prostate
HCC-2998 colon = test system: HCC-2998 colon
HT29 colon = test system: HT29 colon
IGROV1 ovarian = test system: IGROV1 ovarian
MCF7 breast = test system: MCF7 breast
MDA-MB-231 breast = test system: MDA-MB-231 breast
SR leukemia = test system: SR leukemia
T-47D breast = test system: T-47D breast
TK-10 renal = test system: TK-10 renal

Structure (SMILES) | GI50 (A549 NSCLC) [µM] | TGI (A549 NSCLC) | GI50 (DU-145 prostate) [µM] | TGI (DU-145 prostate) [µM] | GI50 (HCC-2998 colon) [µM] | TGI (HCC-2998 colon) | GI50 (HT29 colon) [µM] | TGI (HT29 colon) | GI50 (IGROV1 ovarian) [µM] | TGI (IGROV1 ovarian) [µM] | GI50 (MCF7 breast) [µM] | TGI (MCF7 breast) [µM] | GI50 (MDA-MB-231 breast) [µM] | GI50 (SR leukemia) [µM] | TGI (SR leukemia) | GI50 (T-47D breast) [µM] | TGI (T-47D breast) [µM] | GI50 (TK-10 renal) [µM] | TGI (TK-10 renal) [µM] | TGI (MDA-MB-231 breast) [µM]
CN[C@@H](C)C(=O)N[C@H]1CN(S(=O)(=O)c2cccc(S(=O)(=O)N3CC[C@H]4CC[C@@H](C(=O)NC(c5ccccc5)c5ccccc5)N4C(=O)[C@@H](NC(=O)[C@H](C)NC)C3)c2)CC[C@H]2CC[C@@H](C(=O)NC(c3ccccc3)c3ccccc3)N2C1=O | > 53.1 | > 100 µM | 15.1 | 28.3 | 11 | 27.2 µM | 20.7 | > 48.3 µM | 21 | 44.5 | 6.93 | 29.2 | < 0.0157 | 1.95 | > 100 µM | 23.6 | > 100 | 55.9 | > 100 | 
CC(=O)ON1CCCC(P(=O)(OCOC(=O)C(C)(C)C)OCOC(=O)C(C)(C)C)C1=O (stereo not drawn) | 0.514 | 18.7 µM | 1.47 | 17.4 | 0.803 | 3.5 µM | 0.305 | 3.68 µM | 0.374 | 1.84 | 0.4 | 2 | 0.446 | 0.309 | 2.34 µM | 0.435 | 7.5 | 0.977 | 6.89 | 5.04
Cc1ccc(O)cc1Nc1ccnc2ccc(S(C)(=O)=O)cc12 | 2.76 | > 25 µM | 7.23 | > 20.4 | 10 | > 25 µM | 0.433 | 2.92 µM | 0.478 | 2.12 | > 25 | > 25 | 0.507 | > 25 | > 25 µM | 1.59 | 24.3 | 0.484 | 2.23 | 4.68
COc1cc2c(cc1Nc1nc(N3CCc4ccccc43)c3cc[nH]c3n1)N(C(=O)CN(C)C)CC2 | 3.34 | 8.88 µM | 1.71 | 3.87 | 3.13 | 7.33 µM | 0.364 | 0.731 µM | 10.9 | 17.1 | 0.48 | 2.09 | 5.86 | 0.517 | 1.28 µM | 7.91 | 16.7 | 1.67 | 3.37 | 12.7
Cc1c(C(=N)C(C#N)C#N)c(=N)oc2c1ccc1ccccc12 | 32.9 | > 100 µM | 25.3 | > 100 | 18 | 39.3 µM | 20.5 | 71.1 µM | 7.76 | 53.4 | 5.34 | > 100 | 19.1 | 7.64 | > 100 µM | 10.1 | > 100 | 30.5 | > 100 | > 100
Cn1c([N+](=O)[O-])cnc1C=C1C(=O)c2ccccc2C1=O | 12.2 | 41.3 µM | 6.45 | 19.6 | 13.5 | 32.2 µM | 7.29 | 25.3 µM | 3.56 | 18.5 | 3.44 | 16.2 | 2.72 | 1.87 | 10.5 µM | 11.4 | 44.6 | 7.07 | 21.8 | 10.1
CCN=c1sc2c(n1NC(=O)c1cc3ccc1CCc1ccc(cc1)CC3)C(=O)c1ccccc1C2=O | 0.738 | 1.71 µM | 0.632 | 1.16 | 0.824 | 2.1 µM | 1.4 | 19.2 µM | 0.449 | 1.31 | 0.592 | 1.3 | 0.658 | 0.815 | 9.91 µM | 0.706 | 2.34 | 9.54 | 16.5 | 2.72
Cc1cccc(NC(=O)c2sc3nc4c(cc3c2N)C(=O)CCC4)c1 | 0.335 | > 100 µM | 0.302 | > 30 | 0.54 | > 100 µM | 0.223 | > 20.1 µM | 0.68 | > 60.8 | 0.157 | > 100 | 0.585 | 0.445 | > 100 µM | 0.397 | > 100 | > 100 | > 100 | > 44.5
O=c1c2ccccc2sc2c(CO)ccc(NCCN3CCCCC3)c12 |  | 12.8 µM |  | 7.18 |  |  |  | 11.9 µM |  | 15 |  | 11.4 |  |  | 7.71 µM |  | 20.6 |  | 12.1 | 19.4
COc1ccc2sc3c(NCCCN)nc4ccccc4c3c(=O)c2c1 | 1.64 | 3.39 µM | 1.81 | 3.31 | 1.66 | 3.34 µM |  |  | 1.67 | 3.19 | 1.7 | 3.48 | 1.52 | 0.832 | 3.22 µM | 1.74 | 3.65 |  |  | 3
CCN(C)c1nc(N(C)CC)c2nc(N(C)CC)nc(N(C)CC)c2n1 |  | > 100 µM |  | > 100 |  | > 100 µM |  | > 100 µM |  | > 100 |  | > 100 |  |  | > 100 µM |  | > 100 |  | > 100 | > 100
OC1(c2ccc(Cl)c(C(F)(F)F)c2)CCN(CCCC(c2ccc(F)cc2)c2ccc(F)cc2)CC1 | 0.837 | 1.58 µM | 0.897 | 1.66 | 0.762 | 1.43 µM | 0.739 | 1.47 µM | 0.975 | 2.05 | 0.796 | 1.47 | 0.795 | 0.831 | 2 µM | 0.941 | 1.84 | 0.89 | 1.69 | 1.52
CCN(CC)Cc1cc(Nc2nc(NC3CCC(N(C)C)CC3)c3ccccc3n2)ccc1OC (stereo not drawn) | 3.59 | 13.7 µM | 10.5 | 22.2 | 10.4 | 22.2 µM | 2.42 | 7.11 µM | 12.8 | 34.3 | 3.83 | 14.6 | 1.7 | 2.13 | 4.74 µM | 5.4 | 18.9 | 12 | 25.4 | 6.09
CNC(=O)c1ncccc1Nc1nc(Nc2cc3c(cc2OC)CCCN3C(=O)CN(C)C)nc2[nH]ccc12 | 0.845 | 4.39 µM | 0.753 | 3.02 | 0.518 | 4.12 µM | 0.0491 | 1.25 µM | 3.52 | 8.66 | 0.073 | 2.73 | 1.58 | 0.104 | 2.96 µM | 3.37 | 9.19 | 2.22 | 6.7 | 5.3
COC1N(C2CC(O)C(CO)O2)C(=O)NC(=O)C1(F)Br (stereo not drawn) | 3.22 | 50 µM and > 100 µM |  | > 100 | 1.14 | 50 µM and 98 µM | 14.9 | 50 µM and > 100 µM | > 50 | > 100 |  | > 100 |  | 25.1 | 50 µM and > 100 µM |  | > 100 | > 50 | > 100 | > 100
CSC1=Nc2c(c(C)c(C)n2COC(CO)CO)C2=NC(=O)CN12 | > 100 | > 100 µM | > 100 | > 100 | > 100 | > 100 µM | > 100 | > 100 µM |  |  | > 100 | > 100 | > 100 | > 100 | > 100 µM | > 100 | > 100 | > 100 | > 100 | > 100
CC1(C)OC[C@@H]([C@@]2(CO[Si](c3ccccc3)(c3ccccc3)C(C)(C)C)CC=CC(=O)O2)O1 | 5.27 | > 100 µM | 12.7 | > 100 | 13.7 | 28.9 µM | 7.97 | > 100 µM | 5.42 | 80.2 | 4.83 | > 100 | 20.6 | 4.1 | 16.6 µM | 8.03 | > 100 | 11.7 | 33 | > 100
COc1ccc(C(=O)c2cc(OC)c(OC)c(OC)c2OC)cc1O | 5.4 | > 100 µM | 4.64 | > 100 | 6.15 | 65.1 µM | 3.8 | > 100 µM | 7.5 | > 100 | 3.83 | > 100 | 5.82 | 0.61 | > 100 µM | 4.64 | > 100 | 52.8 | > 100 | > 100
CCCCCOc1ccc(/C=N/Nc2cc(C)nc3ccc(Cl)cc23)cc1 | 1.9 | 3.52 µM | 1.88 | 3.7 | 1.95 | 3.54 µM | 1.44 | 2.81 µM | 1.91 | 3.6 | 1.64 | 3.4 | 1.71 | 0.369 | 1.73 µM | 1.76 | 3.71 | 1.77 | 3.16 | 3.23
CC(=O)O[C@H]1C(=O)[C@@]2(C)C([C@H](OC(=O)c3ccccc3)[C@]3(O)C[C@H](OC(=O)[C@H](O)[C@@H](NC(=O)c4ccccc4)c4ccccc4)C(C)=C1C3(C)C)[C@]1(OC(C)=O)CO[C@@H]1C[C@@H]2O (stereo partly drawn) | < 0.005 | > 50 µM | 0.00673 | 0.0272 | 0.00868 |  | < 0.005 |  | 0.41 | > 50 | < 0.005 | > 50 | 0.0343 | < 0.005 | > 50 µM | 0.00973 | > 50 |  | > 50 | > 50
C[C@]12CC[C@H]3[C@@H](CCC4=CC(=O)CC[C@@]43C)[C@@H]1CC[C@@H]2c1csc(N)n1 | 5.77 | 31.6 µM | 6.72 | 24.5 | 5.08 | 19.6 µM | 4.41 | 18.3 µM | 4.98 | 20.6 | 3.42 | 15.5 | 8.82 | 2.12 | 12.6 µM | 2.26 | 18.8 | 11.3 | 43 | 28.7
COc1cc(CNc2nc3cc(N)cc(N)c3nc2-c2ccccc2)cc(OC)c1 | 33.2 | > 100 µM | 29.7 | > 100 |  |  | 8.17 | 44.4 µM | 8.62 | 55.7 | 8.34 | > 100 | 2.08 | 3.84 | > 100 µM | 1.67 | 4.57 | 24.6 | 62.3 | 6.09
O=C(NCCNCCO)c1ccc2c(c1)oc1cc3ccccc3c(=O)n12 | 16.2 | > 50 µM | 41.2 | > 50 |  |  | 29.4 | > 50 µM | 16.5 | > 50 | 31.1 | > 50 | 29.8 | 24.8 | > 50 µM | 24.7 | > 50 | 1.48 | 19.6 | > 50
O=C(Nc1cccc(-n2cc(-c3ccncc3)c(-c3cc(O)cc(Cl)c3)n2)c1)c1ccc(N2CCOCC2)c(C(F)(F)F)c1 | 1.64 | 18 µM | 5.65 | > 100 | 1.82 | 7.95 µM | 3.03 | 11.3 µM | 5.12 | > 100 | 4.16 | > 100 | 0.327 | 0.338 | 1.83 µM | 3.81 | > 100 |  |  | 1.66
O=C1CC(c2ccccc2)Oc2ccccc21 (stereo not drawn) |  |  |  | > 100 |  | > 100 µM |  | 59.7 µM |  | > 100 |  | > 100 |  |  | 50.6 µM |  | > 100 |  | > 100 | 94

Source: PubChem BioAssay (NCI)
